Laboratory results taken from patent US6548715B1, “Structural analogues of vitamin D” (Laboratoire Theramex S.A., priority 1993, dated 2003).

Assays:
[1] = target: T1, human DBP (vitamin D binding protein) (Homo sapiens, UniProt P02774); experiment: Relative affinity for purified human vitamin D-binding protein (hDBP); details: % of the activity of 1α,25-(OH)2D3 at 50% of its activity (B50)
T1 sequence (P02774 17-474): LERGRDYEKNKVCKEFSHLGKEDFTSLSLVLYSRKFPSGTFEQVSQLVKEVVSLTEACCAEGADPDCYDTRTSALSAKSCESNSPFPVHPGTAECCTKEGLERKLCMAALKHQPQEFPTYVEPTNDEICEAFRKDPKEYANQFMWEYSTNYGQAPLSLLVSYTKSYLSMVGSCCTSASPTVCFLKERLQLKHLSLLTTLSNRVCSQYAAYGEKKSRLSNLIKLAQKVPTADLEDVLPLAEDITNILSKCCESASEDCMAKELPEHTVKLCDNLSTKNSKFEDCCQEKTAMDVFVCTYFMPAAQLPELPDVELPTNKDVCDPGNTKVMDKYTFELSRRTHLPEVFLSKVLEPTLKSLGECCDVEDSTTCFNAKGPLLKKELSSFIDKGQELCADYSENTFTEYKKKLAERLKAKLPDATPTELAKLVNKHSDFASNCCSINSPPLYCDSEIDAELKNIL

HL-60 cells = experiment: HL-60 cell differentiation (NBT reduction); assay type: cell-based; details: % of the activity of 1α,25-(OH)2D3 at 50% of its activity (B50); human leukemia cells
Method: (§1) HL-60 cells were seeded at 1.2×10^5 cells/ml and 1α,25-(OH)2D3 or its anologs were added in ethanol (final concentration <0.2%) in RPMI 1640 medium supplemented with 10% heat-inactivated fetal calf serum (FCS) for 4 d at 37° C. Cells were then assayed for maturation by NBT reduction assay as described (22) using a hemacytometer, or for proliferation by cell counting and [^3H] thymidine incorporation. MG 63 cells, seeded at 5×10^3 cells/ml in 96 well flat bottomed culture plates (Falcon, Becton Dickinson, N.J.) in a volume of 0.2 ml of DMEM and 2% FCS, were incubated with 1α,25-(OH)2D3 or its analogues for 72 h. Osteocalcin was then measured in the culture medium using a homologous human osteocalcin RIA (39). Breast carcinoma cells (MCF-7 or GR) were grown in DMEM/nut.mix F-12 (HAM) medium supplemented with 10% FCS. Cells (5000/Well) were incubated during 24 h in 96 well tissue culture plates (Falcon 3072) followed by a 72 h incubation with/without 1α,25-(OH)2D3 or analogues. The cells were then incubated with [^3H]thymidine (1 μCi/well) for 4 h and harvested thereafter in NaOH (0.1 M) and the radioactivity counted. The protein content of the cells was measured by the Pierce BCA protein assay (Rockford, Ill.).

MG-63 cells = experiment: MG-63 osteosarcoma cells, osteocalcin secretion; assay type: cell-based; details: % of the activity of 1α,25-(OH)2D3 at 50% of its activity (B50); human osteosarcoma cells
Method: as §1

MCF-7 cells = experiment: MCF-7 breast cancer cell proliferation ([3H]thymidine incorporation); assay type: cell-based; details: % of the activity of 1α,25-(OH)2D3 at 50% of its activity (B50); human breast cancer cells
Method: as §1

[2] = system: human normal keratinocytes; experiment: Human keratinocyte proliferation ([3H]thymidine incorporation); assay type: cell-based; details: % of the activity of 1α,25-(OH)2D3 at 50% of its activity (B50)
Method: to evaluate the effects on cell proliferation of non-malignant cells and especially to evaluate their potential for use for dermatological disorders, the new compounds were tested in cultures of human normal keratinocytes.
Human skin keratinocytes were isolated and cultured using a modification of the method of Kitano and Okada (38).
Briefly, the skin from biopsies of patients with breast tumors, was cutted into pieces measuring 3-5 mm and soaked overnight at 4° C. in a solution of dispase (20 Boehringer units/ml). The epidermis was peeled from the dermis, washed with calcium- and magnesium-free phosphate buffered saline and incubated and shaked in a 0.25% trypsin solution for 10 min at room temperature. The reaction was then stopped by addition of PBS containing 10% FCS. The cells were collected after centrifugation at 4° C. for 10 min at 800 rpm. After an additional washing with PBS, the pellet was suspended in culture medium into 25 cm^2 primaria flasks from Becton Dickinson. The keratinocytes were cultivated at 37° C. in an atmosphere of 5% CO2 in air. A few hours later, the medium was replaced by new one. The medium [Keratinocyte Medium from Gibco containing Epidermal Growth Factor (5 ng/ml), Bovine Pituitary Extract (35-50 μg/ml) and antibiotics] was renewed every other day until confluency.
Keratinocytes were cultured in 96-well plate and, after 24 hours, were treated with various concentrations of vitamin D analogues, followed by pulse labelling with 1 μCi of [^3H]thymidine for 3 hours. Cultures were washed 3 times with PBS and twice with 10% (v/v) ice cold trichloroacetic acid. Cells were solubilized with 1 M NaOH and radioactivity was counted in a scintillation counter.

[3] = system: vitamin D-deficient chicks; experiment: Calcemic effect in vitamin D-deficient chicks (serum calcium); assay type: in vivo, chick; details: % of the activity of 1α,25-(OH)2D3 at 50% of its activity (B50); vitamin D-deficient chicks injected 10 consecutive days
Method: The antirachitic activity of the analogues was tested in 3 weeks old vitamin D-deficient chicks injected for 10 consecutive days with 1α,25-(OH)2D3 or its analogues (22,23). Serum calcium (by atomic absorptiometry) and osteocalcin (by specific RIA), duodenal calbindin D-28K (by RIA) and bone calcium content were measured. The hypercalcemic effect of the most interesting anologues was also tested in vitamin D-replete normal NMRI mice by daily sc injection of 1α,25-(OH)2D3, its analogues or the solvent for 7 consecutive days, using serum, bone and urinary calcium excretion and serum osteocalcin (by specific mouse RIA) as parameters (40).

[4] = system: spontaneously diabetic NOD mice; experiment: Prevention of autoimmune disease recurrence after syngeneic islet transplantation in diabetic NOD mice; assay type: in vivo; details: Nr 46 10 μg/kg/2d
Description: To evaluate the immune potential of the analogues the well known model of prevention of autoimmune disease recurrence in the spontaneously diabetic NOD mice was used. When syngeneic NOD islets are transplanted under the kidney capsule of spontaneously diabetic NOD mice, diabetes is only cured for some days, since in the absence of immunomodulatory treatment, the newly transplanted islets are destroyed within 14 days.

vitamin D receptor = target: T2, vitamin D receptor (Sus scrofa, UniProt A3RGC1); details: % of the activity of 1α,25-(OH)2D3 at 50% of its activity (B50); 1α,25-(OH)2D3 assigned 100%
T2 sequence (A3RGC1 1-427): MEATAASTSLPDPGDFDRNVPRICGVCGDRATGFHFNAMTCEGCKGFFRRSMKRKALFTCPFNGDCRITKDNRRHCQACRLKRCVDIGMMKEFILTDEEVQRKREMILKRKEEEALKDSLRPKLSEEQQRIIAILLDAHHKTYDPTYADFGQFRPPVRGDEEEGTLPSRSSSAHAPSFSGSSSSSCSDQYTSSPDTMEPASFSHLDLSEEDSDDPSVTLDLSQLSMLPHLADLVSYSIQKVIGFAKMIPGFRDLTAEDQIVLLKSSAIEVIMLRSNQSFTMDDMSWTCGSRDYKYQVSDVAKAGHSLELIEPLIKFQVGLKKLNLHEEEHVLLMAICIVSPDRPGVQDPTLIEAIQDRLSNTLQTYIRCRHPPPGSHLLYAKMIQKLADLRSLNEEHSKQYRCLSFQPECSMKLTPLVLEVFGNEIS

Row | Affinity for human DBP [1] [%] | Ca serum chick [3] [%] | Affinity for pig receptor (vitamin D receptor) [%] | Structure (SMILES) | Cell differentation/cell proliferation HL-60 (HL-60 cells) [%] | Cell differentation/cell proliferation MG-63 (MG-63 cells) [%] | Cell differentation/cell proliferation MCF-7 (MCF-7 cells) [%] | Cell differentation/cell proliferation keratinocytes [2] [%] | Mean survival of islets and range [4]
1 | 19 | <0.1 | 8 | C=C1C(=CC=CCC2(C)CCC(CCCC(C)(C)O)C2(C)C)CC(O)CC1O (stereo not drawn) [Compound 11] | 30 | 35 | 30 | 10 | 
2 | 5 | <1 | 60 | C=C1/C(=C\C=C2/CCC[C@](C)([C@H](C)[C@H](C)CC[C@H](O)C(C)C)C2)C[C@@H](O)C[C@@H]1O [Compound 4] | 500 | 100 | 2000 | 2000 | 
3 | 1 | <1 | 3 | CC1=C(/C=C\C2=CCC[C@](C)([C@H](C)[C@H](C)CC[C@@H](O)C(C)C)C2)C[C@@H](O)C[C@@H]1O [Compound 58] | 650 | 115 | 700 | 1000 | 

Continued, molecule first:

Row | Structure (SMILES) | Affinity for human DBP [1] [%] | Ca serum chick [3] [%] | Affinity for pig receptor (vitamin D receptor) [%] | Cell differentation/cell proliferation HL-60 (HL-60 cells) [%] | Cell differentation/cell proliferation MG-63 (MG-63 cells) [%] | Cell differentation/cell proliferation MCF-7 (MCF-7 cells) [%] | Cell differentation/cell proliferation keratinocytes [2] [%] | Mean survival of islets and range [4]
4 | CC(CC#CC(C)(C)O)C1CCC2C(=CC=C3CC(O)CC(O)C3)CCCC21C (stereo not drawn) [Compound 46] | <0.5 | 2 | 30 | 1650 | 500 | 1950 | 1000 | 19 (6-51) d
5 | C=C1C(=CC=CCC2(C)CCC(CCCC(O)(CC)CC)C2(C)C)CC(O)CC1O (stereo not drawn) [Compound 12] | 5 | <0.1 | 45 | 250 | 135 | 80 | 100 | 
